Read-outs that look alike come from different tables or passages of the source. Starred links: 1 amine or outer side, 2 acyl side, 3 side chain; linkers in the order of their positions; H or OH if unused. Positions of bridges follow the written chain, without caps; N, C: chain ends. Non-standard residues stand in square brackets, D forms with d. Residues, ends and D or L forms follow the SMILES beside them. *: point of attachment. X40 = O=C(O)C1CCCCC1C(=O)Nc1ccc(-c2ccc(C[C@H](N[*:1])C(=O)[*:2])cc2)cc1; Bip(4'-NH) = O=C([C@H](Cc1ccc(-c2ccc(N[*:3])cc2)cc1)N[*:1])[*:2]; dArg(ω-(3-HO-benzyl)) = N=C(NCCC[C@@H](N)C(=O)O)NCc1cccc(O)c1; Bip(4'-CONHMe) = CNC(=O)c1ccc(-c2ccc(C[C@H](N)C(=O)O)cc2)cc1; Indazole3carbonyl(1-CH2COOH) = O=C(O)Cn1nc(C(=O)*)c2ccccc21; Bip(4'-COOH) = N[C@@H](Cc1ccc(-c2ccc(C(=O)O)cc2)cc1)C(=O)O; Bip(4'-NHAc) = CC(=O)Nc1ccc(-c2ccc(C[C@H](N)C(=O)O)cc2)cc1; Indole3carbonyl(1-CH2COOH) = O=C(O)Cn1cc(C(=O)*)c2ccccc21; X44 = N#Cc1ccc(CNC(=N)NCCC[C@@H](N[*:1])C(=O)[*:2])cc1; Ala(imidazol-2-yl) = N[C@@H](Cc1ncc[nH]1)C(=O)O; dArg(ω-Bn) = N=C(NCCC[C@@H](N)C(=O)O)NCc1ccccc1; Ala(morpholin-4-yl) = N[C@@H](CN1CCOCC1)C(=O)O; Benzoyl(3-OCH2COOH) = O=C(O)COc1cccc(C(=O)*)c1; Bip = N[C@@H](Cc1ccc(-c2ccccc2)cc1)C(=O)O; 2Pal = N[C@@H](Cc1ccccn1)C(=O)O; Cha = N[C@@H](CC1CCCCC1)C(=O)O; Sar = CNCC(=O)O
Target: TNFα (Homo sapiens, UniProt P01375)
Test: TNF-Induced HEK-Blue Assay
Assay type: cell-based
[1] = HEK-Blue-CD40L cells, NF-kB-driven secreted alkaline phosphatase reporter, TNFα 0.5 ng/ml, 18 h, read-out: TNF induced HEK-Blue assay IC50 value

TNFα, sequence (P01375 77-233 limits assumed): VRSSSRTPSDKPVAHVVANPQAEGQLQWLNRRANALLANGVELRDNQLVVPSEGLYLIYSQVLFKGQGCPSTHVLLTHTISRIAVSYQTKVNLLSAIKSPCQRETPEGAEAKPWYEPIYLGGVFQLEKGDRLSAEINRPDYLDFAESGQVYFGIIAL

| Compound | IC50 [1] | IC50 |
| --- | --- | --- |
| CC(C)C[C@@H]1NC(=O)[C@H](Cc2cnc[nH]2)NC(=O)[C@H](C(C)C)NC(=O)[C@@H]2CCCN2C(=O)[C@H](C(C)C)NC(=O)[C@@H](CCCNC(=N)NCc2ccccc2)NC(=O)[C@H](CC(=O)O)NC(=O)[C@H](Cc2ccccn2)NC(=O)CN(C)C(=O)[C@H](Cc2ccc(-c3ccc(NC(=O)c4cn(CC(=O)O)c5ccccc45)cc3)cc2)NC(=O)[C@H](Cc2ccc(-c3ccccc3)cc2)NC(=O)[C@H](CN2CCOCC2)NC(=O)CSC[C@@H](C(=O)NCC(N)=O)NC1=O [Example 629] ({CH2CO}-[Ala(morpholin-4-yl)][Bip][Bip(4'-NH)](Indole3carbonyl(1-CH2COOH))[Sar][2Pal]D[dArg(ω-Bn)]VPVHLCG-NH2; thioether N-13) | – | 50 to 200 nM |
| CC(C)C[C@@H]1NC(=O)[C@H](CCCNC(=N)N)NC(=O)[C@H](C(C)C)NC(=O)[C@@H]2CCCN2C(=O)[C@H](C(C)C)NC(=O)[C@@H](CCCNC(=N)NCc2ccc(C#N)cc2)NC(=O)[C@H](CC(=O)O)NC(=O)[C@@H]2CCCN2C(=O)CN(C)C(=O)[C@H](Cc2ccc(-c3ccc(NC(=O)c4nn(CC(=O)O)c5ccccc45)cc3)cc2)NC(=O)[C@H](Cc2ccc(-c3ccccc3)cc2)NC(=O)[C@H](CN2CCOCC2)NC(=O)CSC[C@@H](C(=O)NCC(N)=O)NC1=O [Example 506] ({CH2CO}-[Ala(morpholin-4-yl)][Bip][Bip(4'-NH)](Indazole3carbonyl(1-CH2COOH))[Sar]PD[X44]VPVRLCG-NH2; thioether N-13) | – | < 50 nM |
| CC(=O)Nc1ccc(-c2ccc(C[C@@H]3NC(=O)[C@H](Cc4ccc(-c5ccc(C(=O)O)cc5)cc4)NC(=O)[C@H](CN4CCOCC4)NC(=O)CSC[C@@H](C(=O)NCC(N)=O)NC(=O)[C@H](CC(C)C)NC(=O)[C@H](Cc4ccccc4)NC(=O)[C@H](C(C)C)NC(=O)[C@@H]4CCCN4C(=O)[C@H](C(C)C)NC(=O)[C@@H](CCCNC(=N)N)NC(=O)[C@H](CC(=O)O)NC(=O)[C@H](Cc4ccc(O)cc4)NC(=O)CN(C)C3=O)cc2)cc1 [Example 287] ({CH2CO}-[Ala(morpholin-4-yl)][Bip(4'-COOH)][Bip(4'-NHAc)][Sar]YD[dR]VPVFLCG-NH2; thioether N-13) | < 50 nM | – |

More lines, main results first:

| IC50 [1] | Compound | IC50 |
| --- | --- | --- |
| < 50 nM | CC(C)C[C@@H]1NC(=O)[C@H](Cc2ncc[nH]2)NC(=O)[C@H](C(C)C)NC(=O)[C@@H]2CCCN2C(=O)[C@H](C(C)C)NC(=O)[C@@H](CCCNC(=N)NCc2cccc(O)c2)NC(=O)[C@H](CC(=O)O)NC(=O)[C@H](Cc2ccccn2)NC(=O)CN(C)C(=O)[C@H](Cc2ccc(-c3ccc(NC(=O)c4cccc(OCC(=O)O)c4)cc3)cc2)NC(=O)[C@H](Cc2ccc(-c3ccc(C(=O)O)cc3)cc2)NC(=O)[C@H](CC2CCCCC2)NC(=O)CSC[C@@H](C(=O)NCC(N)=O)NC1=O [Example 555] ({CH2CO}-[Cha][Bip(4'-COOH)][Bip(4'-NH)](Benzoyl(3-OCH2COOH))[Sar][2Pal]D[dArg(ω-(3-HO-benzyl))]VPV[Ala(imidazol-2-yl)]LCG-NH2; thioether N-13) | – |
| 50 to 200 nM | CC[C@H](C)[C@@H]1NC(=O)[C@@H](CCCNC(=N)N)NC(=O)[C@H](CC(=O)O)NC(=O)[C@H](Cc2cnc[nH]2)NC(=O)CN(C)C(=O)[C@H](Cc2ccc(-c3ccc(NC(=O)C4CCCCC4C(=O)O)cc3)cc2)NC(=O)[C@H](Cc2ccc(-c3ccccc3)cc2)NC(=O)[C@H](CC2CCCCC2)NC(=O)CSC[C@@H](C(=O)NCC(N)=O)NC(=O)[C@H](CC(C)C)NC(=O)[C@H](Cc2cnc[nH]2)NC(=O)[C@H](C(C)C)NC(=O)[C@@H]2CCCN2C1=O (stereo partly drawn) [Example 318] ({CH2CO}-[Cha][Bip][X40][Sar]HD[dR]IPVHLCG-NH2; thioether N-13) | – |
| 50 to 200 nM | CC[C@H](C)[C@@H]1NC(=O)[C@@H](CCCNC(=N)N)NC(=O)[C@H](CC(=O)O)NC(=O)[C@H](Cc2cnc[nH]2)NC(=O)CN(C)C(=O)[C@H](Cc2ccc(-c3ccccc3)cc2)NC(=O)[C@H](Cc2ccc(-c3ccc(C(=O)NC)cc3)cc2)NC(=O)[C@H](CC2CCCCC2)NC(=O)CSC[C@@H](C(=O)NCC(N)=O)NC(=O)[C@H](CC(C)C)NC(=O)[C@H](Cc2cnc[nH]2)NC(=O)[C@H](C(C)C)NC(=O)[C@@H]2CCCN2C1=O [Example 397] ({CH2CO}-[Cha][Bip(4'-CONHMe)][Bip][Sar]HD[dR]IPVHLCG-NH2; thioether N-13) | – |

Source: US20250145665A1, “MACROCYCLIC PEPTIDES USEFUL AS MODULATORS OF TNF ALPHA” (Bristol-Myers Squibb Company, priority 2023, published 2025)
